Measured values: US9320272B2, “Microbial composition” (Rohm and Haas Company, priority 2011, dated 2016)
Where “and” joins values, the source holds several entries; their conditions need not be identical. Equal entries are not always repeated.

What was measured:
[1] = system: Escherichia coli (E. coli - ATCC #10536); assay: Synergy test: high resolution MBC microtiter plate assay in phosphate buffer containing 35% dipropylene glycol, 15 seconds contact; assay type: cell-based; settings: for QA: concentration of first component (A) acting alone which produced an end point (MBC of Compound A); Qa with Qb = 0 / QB: concentration of second component (B) acting alone which produced an end point (MBC of Compound B); Qb with Qa = 0: E. coli 10536, complete kill in 15 seconds, phosphate buffer with 35% DPG; for SI (Synergy Index = Qa/QA + Qb/QB): E. coli 10536, less than one = synergy, one = additivity, greater than one = antagonism
From the text: One measure of synergy is the industrially accepted method described by Kull, F. C.; Eisman, P. C.; Sylwestrowicz, M. D, and Mayer, R. L., in Applied Microbiology 9:538-541 (1961), using the ratio determined by the formula: Qa/QA+Qb/QB=Synergy Index (“SI”) wherein; QA=concentration of compound A (first component) in percent, acting alone, which produced an end point (MBC of Compound A), Qa=concentration of compound A in percent, in the mixture, which produced an end point. QB=concentration of compound B (second component) in percent, acting alone, which produced an end point (MBC of Compound B). Qb=concentration of compound B in percent, in the mixture, which produced an end point.
When the sum of Qa/QA and Qb/QB is greater than one, antagonism is indicated. […] The lower the SI, the greater is the synergy shown by that particular mixture. The minimum biocidal concentration (MBC) of a microbicide is the lowest concentration tested under a specific set of conditions that provides complete kill of the tested microorganisms.
Synergy tests were conducted using standard microliter plate assays with phosphate buffer containing 35% dipropylene glycol (DPG). In this method, a wide range of combinations of chemicals was tested by conducting high resolution. MBC assays of Component (A) in the presence of various concentrations of Component (B). High resolution MBCs were determined by adding varying amounts of microbicide to one column of a microliter plate and doing subsequent […] dilutions using an automated liquid handling system to obtain a series of closely spaced endpoints. The MBC plate was inoculated one column at a time with the test microorganism. An aliquot of the inoculated well was transferred at 15 seconds to a plate containing a neutralizing agent (EVE Neutralizing Broth), mixed and held for 5 minutes before being transferred to a growth plate containing trypticase soy broth (TSB). The TSB plate was incubated at 37° C. and read for the presence/absence of growth at 24 hours. The lowest level tested that provided complete kill (as evidenced by no growth in the microtitre plate) of the test organisms in 15 seconds is the minimum biocidal concentration (MBC).
The synergy of the combinations of the present invention was determined against a bacterium, Escherichia coli (E. coli—ATCC #10536), at a concentration of approximately 1×10^8 bacteria per mL. This microorganism is representative of natural contaminants in many consumer and industrial applications.

[2] = system: Escherichia coli (E. coli - ATCC #10536); assay: Automated assessment of efficacy in surfactant base (2.85% sodium cocoyl glycinate + 1.85% sodium lauroamphoacetate, pH 10), 15 seconds exposure; assay type: cell-based; settings: for MBC (% w/v): in 2.85% sodium cocoyl glycinate + 1.85% sodium lauroamphoacetate solution at pH 10, E. coli, 15 seconds exposure; for No. of replicates showing growth (out of 4) / Δ OD 450 nm = OD450 (time zero) − OD450 (time = 16 hours), Mean / Δ OD 590 nm OD590 (time = 16 hours) − OD590 (time zero), Mean: model surfactant solution pH 10, 15 s exposure; for Δ OD 450 nm = OD450 (time zero) − OD450 (time = 16 hours), Mean / Δ OD 590 nm OD590 (time = 16 hours) − OD590 (time zero), Mean: 4 replicates
Procedure: In these examples, the efficacy of combinations of actives were tested in a surfactant cleansing formulation comprising 2.85% sodium cocoyl glycinate and 1.85% sodium lauroamphoacetate.
This corresponds to a 50% in use dilution with water of a neat formulation containing 5.7% cocoyl glycinate and 3.7% sodium lauroamphoacetate during hand washing.
Solutions were prepared such that the concentrations of the surfactant components and test actives were 1.1× the final desired concentration in order to allow for dilution with the bacterial inoculum in the test. The solutions were manually adjusted to pH 10.0 by dropwise addition of sodium hydroxide solution, as measured with a pH meter at ambient temperature.
The efficacy of the combinations of the present invention was determined against Escherichia coli (E. coli—ATCC #10536), at a concentration of approximately 1×10^8 bacteria per mL.
Tests were conducted using standard microliter plate assays using an automated liquid handling system. 270 μl of the surfactant test solution was pipetted into each well of the microtitre plate and 30 μl of the bacterial suspension was then added. After exactly 15 seconds of bacterial exposure, a 30 μl volume of bacterial cells was withdrawn and transferred to 270 μl of D/E quench solution. After 5 minutes in the D/E quench, the optical density (OD) was measured for each plate in turn at two specific wavelengths (450 nm and 590 nm). These provide a dual check of antimicrobial activity, as the OD450 reading is specific for the yellow colour of D/E quench when bacterial growth is observed, whereas OD590 is specific for the initial purple colour of the D/E quench which is retained if no bacterial growth is observed. After the time zero OD measurements, plates were then incubated at 37° C. overnight (16 hours) before repeating the OD measurements. Delta CD values were calculated by subtracting […] the initial value at time zero. Bacterial growth is observed as an increase in OD450 and a decrease in ΔOD590. To identify antibacterially efficacious systems (those preventing appreciable bacterial growth after incubation), the following threshold changes in OD readings have been adopted: if (1), OD450 increases by less than 0.2 absorbance unit on incubation and (2), OD590 decreases by less than 0.35 unit on incubation. Conversely, where OD450 increases by more than 0.2 AU and OD590 decreases by more than 0.35 unit after incubation, corresponding to a colour shift from purple to yellow, the test system allows bacterial growth and is not deemed efficacious. Four replicate measurements in the same plate have been made for each test system. The number of replicate wells showing either bacterial growth or no growth is also readily assessed by eye by following the colour change.
Dose responses for individual components and binary mixtures of actives at a fixed concentration ratio were generated by sequential dilution of liquors with further surfactant solution to obtain a series of endpoints.
In some selected cases, the combinations were also tested at the weight ratio 1.1.

Row | SMILES | QA: concentration of first component (A) acting alone which produced an end point (MBC of Compound A); Qa with Qb = 0 [1] | SI (Synergy Index = Qa/QA + Qb/QB) [1] | MBC (% w/v) [2] [% w/v] | further results
1 | Cc1ccc(C(C)C)c(O)c1O [3-isopropyl-6-methylbenzene-1,2-diol] | 0.8 weight % and 1.0 weight % | 1.00 | – | –
2 | Oc1ccc2c(c1)CCCC2 [5,6,7,8-tetrahydronaphthalen-2-ol] | 0.6 weight % and 0.3 weight % and 0.5 weight % | 1.00 | >0.2 | No. of replicates showing growth (out of 4) ([2]; single active at […] w/v): 4; Δ OD 450 nm = OD450 (time zero) − OD450 (time = 16 hours), Mean ([2]; single active at […] w/v): −1.59; Δ OD 590 nm OD590 (time = 16 hours) − OD590 (time zero), Mean ([2]; single active at […] w/v): 0.30
3 | CC(C)=CCC/C(C)=C/CO [(E)-3,7-dimethylocta-2,6-dien-1-ol] | – | – | >0.5 | No. of replicates showing growth (out of 4) ([2]; single active at 0.3% w/v): 4; Δ OD 450 nm = OD450 (time zero) − OD450 (time = 16 hours), Mean ([2]; single active at 0.3% w/v): −0.51; Δ OD 590 nm OD590 (time = 16 hours) − OD590 (time zero), Mean ([2]; single active at 0.3% w/v): 0.59; No. of replicates showing growth (out of 4) ([2]; single active at 0.5% w/v): 4; Δ OD 450 nm = OD450 (time zero) − OD450 (time = 16 hours), Mean ([2]; single active at 0.5% w/v): −0.45; Δ OD 590 nm OD590 (time = 16 hours) − OD590 (time zero), Mean ([2]; single active at 0.5% w/v): 0.62; No. of replicates showing growth (out of 4) ([2]; single active at […] w/v): 4; QB: concentration of second component (B) acting alone which produced an end point (MBC of Compound B); Qb with Qa = 0 [1]: 0.3 weight % and 0.2 weight %
4 | C=CC(C)(O)CCC=C(C)C (racemic) [3,7-dimethylocta-1,6-dien-3-ol] | – | 1.0 | >0.5 | Δ OD 450 nm = OD450 (time zero) − OD450 (time = 16 hours), Mean ([2]; single active at 0.2% w/v): −0.53; Δ OD 590 nm OD590 (time = 16 hours) − OD590 (time zero), Mean ([2]; single active at 0.2% w/v): 0.60; Δ OD 450 nm = OD450 (time zero) − OD450 (time = 16 hours), Mean ([2]; single active at 0.5% w/v): −0.30; Δ OD 590 nm OD590 (time = 16 hours) − OD590 (time zero), Mean ([2]; single active at 0.5% w/v): 0.50; QB: concentration of second component (B) acting alone which produced an end point (MBC of Compound B); Qb with Qa = 0 [1]: 0.5 weight %
5 | CC(C)(C)c1ccc(O)c(O)c1 [4-tert-butylbenzene-1,2-diol] | 0.8 weight % and 1.0 weight % | 1.00 | – | –
6 | Oc1ccc(C2CCCC2)cc1 [4-cyclopentylphenol] | 0.2 weight % | 1.00 | >0.2 | –
7 | Oc1cccc2c1CCCC2 [5,6,7,8-tetrahydronaphthalen-1-ol] | 0.6 weight % and 0.5 weight % | 1.00 | >0.2 | –
